Experimental data reported in patent US8568997B2, “Detection system and uses therefor” (Dimerix Bioscience Pty Ltd., priority 2006, dated 2013).
Ends that are not written are not given here.

Assays:
[1] = test system: TRHR with OxR2 (thyrotropin releasing hormone receptor/orexin receptor hetero-dimer/-oligomer); assay: eBRET/BRET between TRHR/Rluc (or Rluc8) and labelled beta-arrestin with OxR2 co-expressed as IG3; type: cell-based
Experimental: (§1) eBRET measurements at 37 C were carried out on HEK293 cells transiently co-expressing TRHR/Rluc and barr2/Venus with either pcDNA3, orexin receptor 2 (OxR2), CXC chemokine receptor 2 (CXCR2), hemagglutin epitope-tagged melanocortin receptor 3 or 4 (HA-MC3R or HA-MC4R), or dopamine D2 receptor long form (D2LR) or short form (D2SR) following the treatment of each with their respective ligands.
(§2) Phosphate-buffered saline (PBS) was used as a vehicle control.
(§3) Where antagonist was not preincubated, cells were treated with PBS instead for the same amount of time.
as §2
Sigmoidal dose response curves were plotted using Prism (GraphPad), either assuming a Hill slope of 1 or allowing for variable slope.
Phosphate-buffered saline (PBS) was added to the first two rows and the last two rows of the 96-well plate (48 wells in total) as a vehicle control. […] Data presented as fluorescence/luminescence.
(§4) Cells were seeded in 6-well plates at a density of approximately 630,000 cells/well (HEK293FT) or approximately 150,000 cells/well (COS-7) and maintained at 37° C., 5% CO2 in Complete Media (DMEM containing 0.3 mg/ml glutamine, 100 IU/ml penicillin and 100 μg/ml streptomycin (Gibco)) supplemented with 10% fetal calf serum (FCS; Gibco). Transient transfections were carried out 24 h after seeding using GeneJuice (Novagen) or Metafectene (Biontex) according to manufacturer instructions. 24 h post-transfection, cells were washed with PBS, detached using 0.05% trypsin/0.53 mM EDTA, resuspended in HEPES-buffered phenol red free Complete Media containing 5% FCS and added to a poly-L-lysine-coated white microplate (Nunc). 48 h post-transfection, eBRET assays were carried out following pre-incubation of cells with EnduRen™ (Promega) at a final concentration of 30-40 μM, at 37° C., 5% CO2 for 2 h. For original BRET studies, the HEPES-buffered phenol red free Complete Media was replaced with PBS and coelenterazine h (Molecular Probes) added to a final concentration of 5 μM immediately prior to commencing the assay. […] Filtered light emissions were sequentially measured for 3-5 s in each of the ‘donor wavelength window’ (400-475 nm) and ‘acceptor wavelength window’ (>500 nm for EGFP or 520-540 nm for EYFP, Topaz (TYFP) or Venus). The BRET signal observed between interacting proteins is normalized by subtracting the background BRET ratio. […] In the following examples, the first calculation will be used, unless the signal is described as the ligand-induced BRET ratio'.
In this case, data are shown as ‘fluorescence/luminescence’ being the ratio of light emission through the ‘acceptor wavelength window’ over the 400-475 nm emission for a particular cell sample. Unless otherwise stated, BRET signals were measured in 96-well microplates.

TRHR with OxR1 = assay: eBRET between TRHR/Rluc and barr2/Venus with OxR1 as IG3; type: cell-based
Experimental: as §3, §4
Cells not pretreated with antagonist were pretreated with PBS instead for the same amount of time.

[2] = cited from earlier work
[3] = target: T1, CC chemokine receptor 5 (CCR5) (Homo sapiens, UniProt P51681); assay: eBRET between CCR5(5)TYFP and barr2/Rluc without IG3 (pcDNA3); type: cell-based; settings: CCR5(5)TYFP + barr2/Rluc + pcDNA3
T1 construct: expressed in transfected cells; host or cells: HEK293
T1 sequence (P51681 whole entry, species assumed): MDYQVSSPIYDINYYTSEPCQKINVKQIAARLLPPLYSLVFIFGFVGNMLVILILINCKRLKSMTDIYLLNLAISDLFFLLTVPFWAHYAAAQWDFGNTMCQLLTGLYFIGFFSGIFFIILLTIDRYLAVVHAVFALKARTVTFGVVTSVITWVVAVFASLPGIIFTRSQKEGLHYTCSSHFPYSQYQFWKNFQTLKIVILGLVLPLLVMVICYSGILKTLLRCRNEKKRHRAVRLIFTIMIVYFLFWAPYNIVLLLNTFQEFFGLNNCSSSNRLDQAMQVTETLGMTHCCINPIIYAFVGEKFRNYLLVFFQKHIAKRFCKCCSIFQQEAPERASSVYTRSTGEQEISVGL
Experimental: (§5) Ligand treatments were either monocyte chemoattractant protein 1 (MCP1; CCR2 selective ligand), macrophage inflammatory protein 1b (MIP1b; CCR5 selective ligand), or both MCP1 and MIP1b combined. Phosphate-buffered saline (PBS) was used as a vehicle control.
(§6) Cells were seeded in 6-well plates at a density of approximately 630,000 cells/well (HEK293FT) or approximately 150,000 cells/well (COS-7) and maintained at 37° C., 5% CO2 in Complete Media (DMEM containing 0.3 mg/ml glutamine, 100 IU/ml penicillin and 100 μg/ml streptomycin (Gibco)) supplemented with 10% fetal calf serum (FCS; Gibco). Transient transfections were carried out 24 h after seeding using GeneJuice (Novagen) or Metafectene (Biontex) according to manufacturer instructions. 24 h post-transfection, cells were washed with PBS, detached using 0.05% trypsin/0.53 mM EDTA, resuspended in HEPES-buffered phenol red free Complete Media containing 5% FCS and added to a poly-L-lysine-coated white microplate (Nunc). 48 h post-transfection, eBRET assays were carried out following pre-incubation of cells with EnduRen™ (Promega) at a final concentration of 30-40 μM, at 37° C., 5% CO2 for 2 h. For original BRET studies, the HEPES-buffered phenol red free Complete Media was replaced with PBS and coelenterazine h (Molecular Probes) added to a final concentration of 5 μM immediately prior to commencing the assay. BRET measurements were taken at 37° C. using the Victor Light plate reader with Wallac 1420 software (Perkin-Elmer). Filtered light emissions were sequentially measured for 3-5 s in each of the ‘donor wavelength window’ (400-475 nm) and ‘acceptor wavelength window’ (>500 nm for EGFP or 520-540 nm for EYFP, Topaz (TYFP) or Venus). The BRET signal observed between interacting proteins is normalized by subtracting the background BRET ratio. […]

CCR5 with CCR2 = target: T2, CCR5 with CCR2 (Homo sapiens, UniProt P41597+P51681); assay: eBRET between CCR5(5)TYFP and barr2/Rluc with CCR2 as IG3; type: cell-based; settings: CCR5(5)TYFP + barr2/Rluc + CCR2
T2 construct: expressed in transfected cells; host or cells: HEK293
T2 sequence (P51681 whole entry, species assumed): as above
T2 sequence (P41597 whole entry, species assumed): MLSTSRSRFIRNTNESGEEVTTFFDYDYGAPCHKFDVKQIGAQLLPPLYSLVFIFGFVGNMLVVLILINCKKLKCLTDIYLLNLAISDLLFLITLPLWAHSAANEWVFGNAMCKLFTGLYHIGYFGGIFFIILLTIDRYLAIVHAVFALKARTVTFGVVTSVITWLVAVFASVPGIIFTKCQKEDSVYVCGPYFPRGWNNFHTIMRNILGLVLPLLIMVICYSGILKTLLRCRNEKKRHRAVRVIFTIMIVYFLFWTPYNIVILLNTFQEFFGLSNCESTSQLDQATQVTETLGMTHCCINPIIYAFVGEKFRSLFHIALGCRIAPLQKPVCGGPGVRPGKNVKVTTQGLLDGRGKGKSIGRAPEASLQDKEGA
Experimental: as §5
BRET measurements at 37 C were carried out on HEK293 cells transiently co-expressing CCR5(5)TYFP (contains a 5 amino acid linker between CCR5 and TYFP), barr2/Rluc and CCR2 treated with increasing doses of monocyte chemoattractant protein 1 (MCP1; CCR2 selective ligand). A sigmoidal dose response curve was plotted using Prism (GraphPad) allowing for variable slope.
Cells were seeded in 6-well plates at a density of approximately 630,000 cells/well (HEK293FT) or approximately 150,000 cells/well (COS-7) and maintained at 37° C., 5% CO2 in Complete Media (DMEM containing 0.3 mg/ml glutamine, 100 IU/ml penicillin and 100 μg/ml streptomycin (Gibco)) supplemented with 10% fetal calf serum (FCS; Gibco). […] BRET measurements were taken at 37° C. using the Victor Light plate reader with Wallac 1420 software (Perkin-Elmer). Filtered light emissions were sequentially measured for 3-5 s in each of the ‘donor wavelength window’ (400-475 nm) and ‘acceptor wavelength window’ (>500 nm for EGFP or 520-540 nm for EYFP, Topaz (TYFP) or Venus). […]

[4] = test system: thyrotropin releasing hormone receptor (TRHR); assay: eBRET/BRET beta-arrestin recruitment to TRHR/Rluc without IG3 (pcDNA3) in HEK293 cells; type: cell-based
Experimental: as §1
Ligand treatments were either OxA or TRH only or both OxA and TRH combined. Phosphate-buffered saline (PBS) was used as a vehicle control.
Ligand treatments were either OxA or TRH only. Phosphate-buffered saline (PBS) was used as a vehicle control.
BRET measurements at 37 C were carried out on HEK293 cells transiently co-expressing TRHR/Rluc, barr2/Venus and pcDNA3 with increasing doses of TRH. Sigmoidal dose response curves were plotted using Prism (Graph Pad), either assuming a Hill slope of 1 or allowing for variable slope. The EC50 and Hill slope values for the variable slope curve are included in a table in the graph.
TRHR is IG1, Rluc is RC1, barr1 is IG2, EGFP is RC2 and OxR2 is IG3. The same amount of EGFP/barr1 (IG2-RC2) is transfected for each experiment.
Cells were seeded in 6-well plates at a density of approximately 630,000 cells/well (HEK293FT) or approximately 150,000 cells/well (COS-7) and maintained at 37° C., 5% CO2 in Complete Media (DMEM containing 0.3 mg/ml glutamine, 100 IU/ml penicillin and 100 μg/ml streptomycin (Gibco)) supplemented with 10% fetal calf serum (FCS; Gibco). Transient transfections were carried out 24 h after seeding using GeneJuice (Novagen) or Metafectene (Biontex) according to manufacturer instructions. 24 h post-transfection, cells were washed with PBS, detached using 0.05% trypsin/0.53 mM EDTA, resuspended in HEPES-buffered phenol red free Complete Media containing 5% FCS and added to a poly-L-lysine-coated white microplate (Nunc). 48 h post-transfection, eBRET assays were carried out following pre-incubation of cells with EnduRen™ (Promega) at a final concentration of 30-40 μM, at 37° C., 5% CO2 for 2 h. For original BRET studies, the HEPES-buffered phenol red free Complete Media was replaced with PBS and coelenterazine h (Molecular Probes) added to a final concentration of 5 μM immediately prior to commencing the assay. BRET measurements were taken at 37° C. using the Victor Light plate reader with Wallac 1420 software (Perkin-Elmer). Filtered light emissions were sequentially measured for 3-5 s in each of the ‘donor wavelength window’ (400-475 nm) and ‘acceptor wavelength window’ (>500 nm for EGFP or 520-540 nm for EYFP, Topaz (TYFP) or Venus). The BRET signal observed between interacting proteins is normalized by subtracting the background BRET ratio. This can be done in one of two ways (see Pfleger et al. (2006) Cell Signal 18, 1664-1670; Pfleger et al. (2006) Nat Protoc 1, 336-344): 1) the ratio of light emission through the ‘acceptor wavelength window’ over the 400-475 nm emission for a cell sample containing only the donor construct is subtracted from the same ratio for a sample containing the interacting acceptor and donor fusion proteins; 2) the ratio of light emission through the ‘acceptor wavelength window’ over the 400-475 nm emission for a cell sample treated with vehicle is subtracted from the same ratio for a second aliquot of the same cell sample treated with ligand. In the following examples, the first calculation will be used, unless the signal is described as the ligand-induced BRET ratio'.

[5] = test system: TRHR335 (truncated TRHR) with OxR2; assay: eBRET/BRET between TRHR335/Rluc and labelled beta-arrestin with OxR2 as IG3; type: cell-based; settings: TRHR335/Rluc + EGFP/barr1 + OxR2
TRHR335 with TRHR = assay: eBRET between TRHR335/Rluc and EGFP/barr1 with TRHR as IG3; type: cell-based
Experimental: Ligand treatments were either OxA or TRH only.
as §6, with “For original BRET studies, the HEPES-buffered phenol red free Complete Media was replaced with PBS and coelenterazine h (Molecular Probes) added to a final concentration of 5 μM immediately prior to commencing the assay.” left out, “Venus).” for “Venus). The BRET signal observed between interacting proteins is normalized by subtracting the background BRET ratio.”

[6] = 10^−6M antagonist approx. 40 minutes before 10^−6M OxA
[7] = 10^−6M antagonist approx. 40 minutes before 10^−6M TRH and OxA

Molecule: Cc1nc2ccc(NC(=O)Nc3ccnc4cccnc34)cc2o1.Cl [SB-334867-A, 1-(2-methylbenzoxazol-6-yl)-3-[1,5]naphthyridin-4-yl urea hydrochloride]
- effect of antagonist pretreatment on OxA-induced eBRET signal [1, 6]: not affected
- effect of antagonist pretreatment on TRH + OxA-induced eBRET signal [1, 7]: did not differ
- effect of antagonist pretreatment on OxA-induced eBRET signal (TRHR with OxR1; [6]): reduced
- effect of antagonist pretreatment on TRH + OxA-induced eBRET signal (TRHR with OxR1; [7]): reduced

Molecule: CN1C(=O)C[C@@H](C(=O)N[C@@H](Cc2c[nH]cn2)C(=O)N2CCC[C@H]2C(N)=O)NC1=O.O.O.O.O [TA-0910, (−)-N—[(S)-hexahydro-1-methyl-2,6-dioxo-4-pyrimidinylcarbonyl]-L-histidyl-L-prolinamide tetrahydrate]
- slow wave sleep (SWS) and rapid eye movement (REM) sleep ([2]; dose- and time-dependent manner): significantly reduced
- cataplexy ([2]; in most of the animals studied): completely suppressed

Molecule: MCP1: Monocyte chemoattractant protein 1 (CCR2 selective ligand)
- eBRET signal [3]: no eBRET signal
- effect of MCP1 addition on MIP1b-induced eBRET signal [3]: made no difference
- eBRET signal (CCR5 with CCR2): able to produce a signal

Molecule: OxA: Orexin A, orexin receptor modulator used as IG3 ligand (QPLPDCCRQKTCSCRLYELLHGAGNHAAGILTL; not fully specified; ends and bridges not checked; UniProt O43612 34-66, looked up)
- cumulative eBRET signal ([4]; TRHR/Rluc + EGFP/barr1, 0 μg OxR2 DNA/well, 10^−6M OxA, 83 mins): no signal was recorded
- effect of OxA on TRH-induced eBRET signal ([4]; TRHR/Rluc + EGFP/barr1 or EGFP/barr2, no OxR2, OxA present with TRH): no difference
- eBRET signal ([4]; TRHR/Rluc + EGFP/barr (barr1, barr2 or barr1R169E), no OxR2): No increase in eBRET signal above baseline
- eBRET signal ([1]; Example 3: TRHR/Rluc + barr2/Venus + OxR2, 10^−6M OxA, PBS pretreatment): eBRET signal was observed
- time to reach eBRET signal ([1]; HEK293, TRHR/Rluc + barr2/Venus + OxR2, ligand 10^−6M): up to 30 minutes
- eBRET signal ([1]; HEK293, TRHR/Rluc + barr2/Venus + OxR2, ligand 10^−6M, 37 C): 0.07-0.08
- time to eBRET signal plateau ([1]; TRHR/Rluc + EGFP/barr1R169E + OxR2 (lower signal than EGFP/barr1)): ≤ 20 min
- time to eBRET signal plateau ([1]; TRHR/Rluc + EGFP/barr1 or EGFP/barr2 + HA-OxR2): more than 10 minutes
- time to eBRET signal plateau ([1]; TRHR/Rluc + EGFP/barr1 or EGFP/barr2 + OxR2): more than 10 minutes
- dose-response Hill slopes ([1]; TRHR/Rluc + barr2/Venus + OxR2, coelenterazine h and EnduRen, FIG. 12): greater than 1
- eBRET signal (TRHR with OxR1; TRHR/Rluc + barr2/Venus + OxR1, agonist 10^−6M): small eBRET signal
- time to eBRET signal plateau [5]: about 20 minutes
- eBRET signal (TRHR335 with TRHR): no eBRET signal above baseline

B1: MIP1b: Macrophage inflammatory protein 1b (CCR5 selective ligand) (protein, UniProt P13236 24-92, looked up)
C-C motif chemokine 4: APMGSDPPTACCFSYTARKLPRNFVVDYYETSSLCSQPAVVFQTKRSKQVCADPSESWVQEYVYDLELN
- eBRET signal [3]: robust signal
- eBRET signal (CCR5 with CCR2): produced a signal
